Source: publication PMC5360176 (Journal of clinical psychopharmacology, 2016)
Values joined by “and” are separate entries in the source; they are usually repeats but may differ in a detail not shown here. Equal entries are not always repeated. Where two headings read alike, the source gives them in different places.

Key:
[1] = human, in vivo
[2] = human, in vivo; remark: listed apart in the source
[3] = cited from earlier work
clinical [4] = conditions: human, in vivo
clinical [5] = conditions: human, in vivo; remark: listed apart in the source
[6] = human, in vivo; remark: listed apart in the source
CAI = conditions: low affinity RBC isoform; cited from earlier work
clinical [7] = conditions: human, in vivo; remark: listed apart in the source
CAII = conditions: high affinity RBC isoform; cited from earlier work
[8] = oxycodone 30 mg p.o.
[9] = noroxycodone in plasma after oxycodone + ACZ, Day 5
[10] = noroxycodone in plasma after oxycodone alone, Day 1
[11] = noroxycodone in plasma after oxycodone alone, Day 8
[12] = therapeutic dose of ~400 mg ACZ/day

COc1ccc2c3c1O[C@H]1C(=O)CC[C@@]4(O)[C@@H](C2)NCC[C@]314 [Noroxycodone]
Area under Curve [9]: 218 ng·h/mL
Cmax [9]: 30 ng/mL
Tmax [9]: 0.9 h
half-life [9]: 5.0 h
Cmax [10]: 34.9 ng/mL
Tmax [10]: 0.9 h
half-life [10]: 4.3 h
Area under Curve [11]: 213 ng·h/mL
Cmax [11]: 30.2 ng/mL
Tmax [11]: 0.9 h
half-life [11]: 4.7 h
Area under Curve (noroxycodone metabolite in plasma after oxycodone alone, Day 1, one-compartment): 224 ng·h/mL
Effect of ACZ on noroxycodone PK parameters (presence or absence of ACZ): no differences in any of the PK parameters

CC(=O)Nc1nnc(S(N)(=O)=O)s1 [ACZ, Acetazolamide]
Blood Area under Curve [1]: 52130 ng/ml*h
RBCs (minus residuum) Area under Curve [1]: 49555 ng/mlblood*h
RBCs (total) Area under Curve [1]: 133107 ng/mlblood*h
Urinary excretion rate Cmax [2]: 669 µg/h
Slowest individual urinary elimination rate (low outlier) ([2]; 48 h): 87 µg/h
Fastest individual urinary elimination rate (high outlier) ([2]; 96 h): 33 µg/h
RBC concentration with which side effects correlate ([3]; therapeutic (~400 mg / day) doses): exceed 90 µM
Mean RBC concentration [3, 12]: 121 ± 46 µM
Mean plasma concentration [3, 12]: 51 ± 40 µM
Cmax (clinical [4]; Cmax): 1310 ng/mL
Cmax (clinical [4]; Plasma Cmax): 660 ng/mL
Tmax (clinical [4]; Plasma Tmax): 1 h
Tmax (clinical [4]; Tmax): 1 h
Tmax (clinical [5]): 7.2 h
Cmax [6]: 1285 ng/mL
Plasma Area under Curve [6]: 5568 ng/mlblood*h
Time of plasma maximum concentration (Cmax) after administration [6]: ≤ 1 h
Tmax [6]: 0.5 h
Max binding capacity (CAI): 155 µM
Cmax (clinical [7]; Blood Cmax): 776 ng/mL
Tmax (clinical [7]; Blood Tmax): 4.8 h
Cmax (clinical [7]; RBCs (minus residuum) Cmax): 636 ng/mL
Tmax (clinical [7]; RBCs (minus residuum) Tmax): 7.5 h
Cmax (clinical [7]; RBCs (total) Cmax): 1790 ng/mL
Cmax (clinical [7]; RBCtotal Cmax): 17 ± 1 µM
Maximum ACZ binding capacity (CAII): 17 µM

COc1ccc2c3c1O[C@H]1C(=O)CC[C@@]4(O)[C@@H](C2)N(C)CC[C@]314 [Oxycodone]
Opioid Agonist Checklist scores as rated by subjects and observers [8]: increased scores on an Opioid Agonist Checklist
Pupil diameter [8]: sustained pupil miosis
Ratings on a visual analog scale of drug liking [8]: increased ratings on a visual analog scale of drug liking
Tmax (human, in vivo, 30 mg): 1 h
Cmax (human, in vivo, 30 mg, Cmax, oxycodone alone, Day 1, plasma): 61.6 ng/mL
Cmax (human, in vivo, 30 mg, Cmax, oxycodone alone, Day 8, plasma): 68.5 ng/mL
half-life (human, in vivo, 30 mg, α-Half-life, oxycodone alone, Day 8, plasma): 0.14 ± 0.06 h
half-life (human, in vivo, 30 mg, β-Half-life, oxycodone alone, Day 1, plasma): 3.9 h
half-life (human, in vivo, 30 mg, β-Half-life, oxycodone alone, Day 8, plasma): 4.1 h
Cmax (human, in vivo, Cmax, oxycodone + ACZ, Day 5, plasma): 71.4 ng/mL
half-life (human, in vivo, α-Half-life, oxycodone + ACZ 15 mg, Day 5, plasma): 0.2 h
half-life (human, in vivo, β-Half-life, oxycodone + ACZ, Day 5, plasma): 4.1 h
Area under Curve (oxycodone + ACZ, Day 5, plasma): 341.3 ng·h/mL
Area under Curve (oxycodone alone, Day 1, plasma): 281.1 ^♦ h*ng/ml
Area under Curve (oxycodone alone, Day 8, plasma): 318.6 ng·h/mL
Tmax (oxycodone alone, Day 8, plasma): 1.0 h
α-Half-life (oxycodone alone, Day 8, plasma): 0.1 ^♦ h
Difference in oxycodone AUC (exposure), Day 5 with ACZ vs Day 1 alone (p<0.05, not different from Day 8): 20% and 20 ± 11%
